Measurements: US20090025713A1, “Nebulised Antibiotics for Inhalation Therapy” (priority 2006, published 2009)
“And” between values parts separate entries of the source, which are not always exact repeats. Equal entries are not always repeated.

Test system: Calu-3 cells
Assay: Cellular tolerability test: TEER of Calu-3 monolayers
Assay type: cell-based, human
Details: for TEER after 2 hours Mean [%]: in KRB; for effect on vitality of Calu-3 cells (in words): summary of Table 1
Text: In addition to the physicochemical properties of drug formulations and their stability, either as solution or dispersed systems, it is helpful to investigate the cellular tolerability of such drug formulations in a cell culture test system. For this purpose the bronchial cell line Calu-3 was used as an in vitro model for toxicity assessment. Calu-3 represents a human submucosal adenocarcinoma cell line that forms tight, polarized and well differentiated monolayers with apical microvilli and tight junctional complexes. In contrast to other cell lines, Calu-3 cells generate extracellular mucus. […] In addition, it has been shown that loss of monolayer integrity is paralleled by a decrease in TEER to values below 600Ω·cm^2 and an increase in permeability. […] Since toxicity is paralleled by a loss of the monolayer integrity, a decrease in TEER of more than 50% is indicative for the toxicity of a test compound. […] The Calu-3 cell tests offer the possibility to investigate potential effects of the drug substance as well as the influence of excipients or formulation constituents.
TEER was determined in physiological Krebs Ringer buffer (KRB) for two hours after the application of the different formulations or excipients. A decrease of the measured resistance indicated an affection of intact epithelial cell-cell contacts (tight junctions), which is an extremely sensitive parameter to determine toxic effects. To assess whether such cell damage was reversible, the cells were incubated for 24 h in cell culture subsequently to the incubation with the test formulations.

[1] = conc. (undiluted), after 24 h in cell culture following incubation
[2] = conc. (undiluted; stock concentration given with each formulation name)
[3] = dilution 1:5, after 24 h in cell culture following incubation
[4] = dilution 1:10, after 24 h in cell culture following incubation

Molecule	TEER after 24 hours Mean [%] [1] [%]	TEER after 2 hours Mean [%] [2] [%]	TEER after 24 hours Mean [%] [3] [%]	TEER after 2 hours Mean [%] (dilution 1:5)	TEER after 24 hours Mean [%] [4] [%]	TEER after 2 hours Mean [%] (dilution 1:10)	TEER after 24 hours Mean [%] (positive control, 0.1% w/v in KRB, passages p44U, p45U, p46U, p47U)	effect on vitality of Calu-3 cells (in words)
Vitamin E TPGS	50	47	49	48	51	47		
CCCCCCCCCCCCOS(=O)(=O)[O-].[Na+] [SDS, reference compound]							10% and 6% and 8%	
O=C1NS(=O)(=O)c2ccccc21.[Na] [Saccharin-Natrium]	43	55	50	55				
2-hydroxypropyl-β-cyclodextrin [Example 2-HP-β-CD]	45	59	77	86	73	90		
O=C(O)CC(O)(CC(=O)O)C(=O)O [Citric acid]	53	105	44	40				
NC[C@H]1O[C@H](O[C@H]2[C@H](O)[C@@H](O[C@H]3O[C@H](CO)[C@@H](O)[C@H](N)[C@H]3O)[C@H](N)C[C@@H]2N)[C@H](N)C[C@@H]1O [Tobramycin (T100), Tobramycin, reference compound]	46	94	79	123				No damaging effect
C[C@@H]1[C@H](O)[C@@H](C)/C=C/C=C/C=C/C=C/C=C/C=C/C=C/[C@H](O[C@@H]2O[C@H](C)[C@@H](O)[C@H](N)[C@@H]2O)C[C@@H]2O[C@](O)(C[C@@H](O)C[C@@H](O)[C@H](O)CC[C@@H](O)C[C@@H](O)CC(=O)O[C@H]1C)C[C@H](O)[C@H]2C(=O)O [Amphotericin B, reference compound]	67	108	64	80				No damaging effect
OC[C@H]1O[C@@H]2O[C@H]3[C@H](O)[C@@H](O)[C@@H](O[C@H]4[C@H](O)[C@@H](O)[C@@H](O[C@H]5[C@H](O)[C@@H](O)[C@@H](O[C@H]6[C@H](O)[C@@H](O)[C@@H](O[C@H]7[C@H](O)[C@@H](O)[C@@H](O[C@H]8[C@H](O)[C@@H](O)[C@@H](O[C@H]9[C@H](O)[C@@H](O)[C@@H](O[C@H]1[C@H](O)[C@H]2O)O[C@@H]9CO)O[C@@H]8CO)O[C@@H]7CO)O[C@@H]6CO)O[C@@H]5CO)O[C@@H]4CO)O[C@@H]3CO [Gamma-CD, γ-cyclodextrin]	41	61	46	69	44	65		
O=C1O[C@H]([C@@H](O)CO)C([O-])=C1O.[Na+] [Sodium Ascorbate]	70	22	66	70	51	57		
Captisol	58	114	56	98	66	83		
